Test results as given in paper PMC9817970 (Cancers, 2022).
“And” between values parts separate entries of the source, which are not always exact repeats. Equal values may be shown once.

Key:
[1] = system: c-KIT D816V Ba/F3 cells; test: Apoptosis analysis (annexinV/PI flow cytometry); type: cell-based; settings: c-KIT D816V Ba/F3, 1 μM
Experimental: (§1) After compound treatment in GIST-T1 and HMC1.2 cells for 24 h, cells were fixed with 70% cold ethanol. Then, cells were incubated with 50 μg propidium iodide/mL solution (PI, Sigma) containing 1 mg RNase A/mL for 30 min in the dark. Cell cycle arrest was analyzed (BD Accuri), and data were processed using BD Accuri^TM C6 software. For apoptosis analysis, compound treatment for 24–48 h, cells were harvested and stained with annexinV and PI solution. 1 × 10^5 cells were analyzed using flow cytometric analysis.

[2] = system: HMC1.2 cells; test: Cell cycle arrest analysis (PI flow cytometry); type: cell-based, human; settings: HMC1.2, 0.5 μM, 24 h
Experimental: as §1

[3] = system: GIST-T1 cells; test: Cell cycle arrest analysis (PI flow cytometry); type: cell-based, human; settings: GIST-T1, 0.01 μM
Experimental: as §1

[4] = system: GIST-T1 cells; test: Invasion assay (Transwell); type: cell-based, human; settings: GIST-T1, 0.05 μM, 48 h
Experimental: The cell invasion assay was performed using Transwell membrane filter inserts (Corning Costar Corp., Corning, NY, USA). GIST-T1 cells were then suspended in serum-free DMEM at 2 × 10^6 cells and seeded in the upper chambers. In the lower chambers, the DMEM medium containing 10% FBS was added. After 48 h, the cells migrating down the membrane were stained with crystal violet.

[5] = system: GIST-T1 cells; test: Soft agar assay (anchorage-independent growth); type: cell-based, human; settings: 3 weeks
Experimental: Anchorage-independent growth was assessed by determining colony formation on soft agar. GIST-T1 cells in DMEM media containing 0.7% agar were plated at 5,000 cells per well. Cells were treated with each compound for 3 weeks, and the media were changed every 3 days. Colonies were stained using iodonitrotetrazolium chloride (Sigma Aldrich). The average number colonies were counted using ImageJ software (version 1.53e, National Institutes of Health, Bethesda, MD, USA)

[6] = system: c-KIT D816V Ba/F3 cells; test: Cell cycle arrest analysis (PI flow cytometry); type: cell-based; settings: c-KIT D816V Ba/F3, 0.5 μM, 24 h
[7] = system: HMC1.2 cells; test: Apoptosis analysis (annexinV/PI flow cytometry); type: cell-based, human; settings: HMC1.2, 1 μM, 48 h
Experimental: as §1

[8] = system: GIST-T1 cells; test: Apoptosis analysis (annexinV/PI flow cytometry); type: cell-based, human; settings: GIST-T1, 0.05 μM
Experimental: as §1

[9] = system: parental Ba/F3 cells; test: Anti-proliferative activity on Ba/F3 cells; type: cell-based; settings: Mus musculus, BaF3
Experimental: (§2) GIST-T1 (Cosmobio, Tokyo, Japan, # PMC-GIST01C-COS) cells were cultured in DMEM (Welgene, # LM001-05) and HMC1.2 (Merck, Darmstadt, Germany, # SCC062) cells were cultured in IMDM (Welgene, # LM004-01). Parental Ba/F3 (DSMZ, Braunschweig, Germany, # ACC300) cells were cultured in RPMI (Welgene, # LM011-51) with 10 ng IL-3/mL (Enzo, # ALX-201-821). The culture media was supplemented with 10% fetal bovine serum and 1% penicillin/streptomycin solution. The cells were maintained in a humidified atmosphere containing 5% CO2 at 37 °C.
(§3) Cells (GIST-T1: 5.0 × 10^3; HMC1.2: 1 × 10^4) were seeded in 96-well plates. Each compound was treated in each well at 10 dose points of 3-fold serial dilution. After treatment with each compound for 72 h, CellTiter-Glo solution (Promega, # G7572) was added to each well. Anti-proliferation activity was measured the luminescence using a 96-well plate reader (EnVision 2013).

[10] = system: GIST-T1 cells; test: Cell viability assay (CellTiter-Glo); type: cell-based; settings: Homo sapiens, GISTT1; 72 h; concentration causing half-maximal growth inhibition
Experimental: as §2, §3

[11] = molecular target: T1, c-KIT V560G/D816V (Homo sapiens, UniProt P10721, D816V/V560G); test: ADP-Glo kinase assay on c-KIT V560G/D816V; type: biochemical
T1 construct: purchased Promega VA7063
Experimental: (§4) Biochemical kinase assays on c-KIT protein kinase were performed at Reaction Biology Corp. (San Diego, CA, USA). […] The kinase assay followed the manufacturer’s instruction. IC50 values were calculated by GraphPad prism 8.0 software (GraphPad Software, San Diego, CA, USA).

[12] = molecular target: T2, c-KIT (Homo sapiens, UniProt P10721); test: Kinase panel profiling; type: biochemical; design: purchased Reaction Biology Corp; settings: 10 μM ATP
Experimental: Kinase panel profiling was conducted by Reaction Biology Corp. (San Diego, CA, USA). A single dose (1.0 μM) of 6r was tested against 371 recombinant human kinases in the presence of 10 μM ATP.

[13] = molecular target: T2, c-KIT; test: Radiometric biochemical kinase assay on c-KIT; design: purchased Reaction Biology Corp. (contract assay service)
Experimental: as §4
Enzymatic inhibitory activities of all synthesized thiazolo[5,4-b]pyridine derivatives against c-KIT were measured using radiometric biochemical kinase assays (Table 1). We first explored the R1 group of the thiazolo[5,4-b]pyridine scaffold.

[14] = system: c-KIT D816V Ba/F3 cells; test: Anti-proliferative activity on Ba/F3 cells; type: cell-based; settings: Mus musculus, BaF3
[15] = system: c-KIT auto-phosphorylation in HMC1.2 cells; test: Western blot of c-KIT signaling; type: cell-based, human; settings: 10 μM
Experimental: Cells were harvested and lysed using RIPA buffer containing 50 mM HEPES (pH 7.4), 1% Triton X-100, 2 mM EDTA, 150 mM NaCl, 2.5 mM NaF, 5 mM Na3VO4, and protease inhibitor cocktail tablet (Roche, # 11–878-580–001). Proteins were separated and transferred to an NC membrane. The membranes were blocked using 5% skim milk in TBS-T buffer. The p-c-KIT (Tyr703, # 3073), p-AKT (Ser473, # 9271), p-ERK (Thr202/Tyr204, # 8544), ERK (# 4695), p-PLCγ (Tyr783, # 14008), p-STAT3 (Tyr705, # 4074), and PARP (# 9542) antibodies were obtained from Cell Signaling Technologies. The β-actin (# sc-47778) and STAT3 (# sc-482) antibodies were obtained from Santa Cruz Biotechnology. AKT (A18120) antibody was purchased from ABclonal. Each primary antibody was incubated overnight at 4 °C. The secondary antibody (GenDEPOT) was incubated for 1 h at room temperature. Proteins were detected using ECL substrate.

[16] = system: HMC1.2 cells; test: Cell viability assay (CellTiter-Glo); type: cell-based, human; settings: Homo sapiens, 72 h
Experimental: as §2, §3

Cc1ccc(NC(=O)c2ccc(CN3CCN(C)CC3)c(C(F)(F)F)c2)cc1-c1cnc2sc(N)nc2c1 [6r]
production of apoptotic cells [1]: remarkably induced
G0/G1 arrest compared with imatinib [2]: more strongly
G0/G1 arrest induced compared to control [3]: 25–35%
invasion capability [4]: significantly suppressing
anchorage-independent growth ([5]; GIST-T1, 0.05 μM, compared to control): completely suppressed
anchorage-independent growth ([5]; GIST-T1, two different concentrations): dramatic inhibition
G0/G1 arrest compared with imatinib [6]: more strongly
production of apoptotic cells [7]: remarkably induced
production of apoptotic cells [8]: remarkably induced
GI50 [9]: 8060 ± 570 nM
GI50 [10]: 10 nM
IC50 ([11]; ADP-Glo kinase assay, 10 μM ATP): 4770 ± 380 nM
fold higher enzymatic inhibitory activity against c-KIT V560G/D816V compared with imatinib ([11]; versus imatinib): 4.9- to 8.0 fold and 8.0 fold
inhibition at 1 µM [12]: 98.7%
IC50 ([13]; read-out: IC50 against c-KIT): 140 nM
fold enhanced c-KIT inhibitory activity compared to 6m ([13]; versus 6m): 15.5 fold
fold higher c-KIT inhibitory activity than imatinib ([13]; versus imatinib): 1.9 fold
GI50 [14]: 1110 ± 470 nM
c-KIT auto-phosphorylation [15]: completely inhibited
GI50 [16]: 1150 ± 960 nM
